Among the test systems are CAKI-1; SF-268; SK-OV-3; MDA-MB-231; OVCAR-5; MOLT-4; NCI-H23; SK-MEL-2; EKVX; IGROV-1; MCF7; OVCAR-4; HOP-92; SK-MEL-28; HCC 2998; K562; SW-620; Hs-578T; COLO 205; NCI-H522.
What all share (test): NCI-60 cell line screen, 48 h

Results on 10 compounds are retold here after ChEMBL document CHEMBL1201862, “PubChem BioAssay data set” (2004).

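Compound exposure: 48 hours, 5 concentrations, 96-well plates. GI50 = concentration required for 50% inhibition of growth.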 The source made the active and inactive calls. No stated cut-off is given here; in the data, active = GI50 up to about 1.1 µM and inactive = higher. A value given as a limit tells only on which side of the number the result lay.

On to `COC(=O)/C(C#N)=C(/NCc1ccccc1)Nc1ccccc1`, for which the GI50 with CAKI-1 is > 100 µM (inactive); in the experiment on SF-268, > 100 µM (inactive); with SK-OV-3 it was > 100 µM (inactive); in the experiment on MDA-MB-231, 69.7 µM (inactive); with OVCAR-5 it was > 100 µM (inactive); in the experiment with MOLT-4 it was 30.1 µM (inactive). Further, the GI50 in the experiment on NCI-H23 is > 100 µM (inactive); in the experiment on SK-MEL-2 it was > 100 µM (inactive); in the experiment with EKVX, 50.9 µM (inactive); in the experiment on IGROV-1 it was > 100 µM (inactive); in the experiment with MCF7, > 100 µM (inactive); in the experiment on OVCAR-4, 91 µM (inactive). The GI50 in the experiment on HOP-92 was 81.7 µM (inactive); with SK-MEL-28, > 100 µM (inactive); in the experiment on HCC 2998, > 100 µM (inactive); in the experiment with K562, 46.1 µM (inactive); in the experiment with SW-620, > 100 µM (inactive); with Hs-578T, 68.5 µM (inactive). Also, the GI50 in the experiment on COLO 205 was 73.1 µM (inactive); in the experiment with NCI-H522 it was 55.7 µM (inactive).
As for `CCNC(=O)OCC1C2=C(C(=O)C(C)=C(N)C2=O)N2CC3C(N3C)C12OC` (stereo not given), the GI50 is 3.95 µM (inactive) in the experiment on CAKI-1; 15.7 µM (inactive) in the experiment with SF-268; 27.4 µM (inactive) in the experiment with SK-OV-3; > 100 µM (inactive) in the experiment with MDA-MB-231; > 72.6 µM (inactive) in the experiment with OVCAR-5; 3.28 µM (inactive) with MOLT-4. The GI50 in the experiment with NCI-H23 was 1.4 µM (inactive); in the experiment on SK-MEL-2, 30.3 µM (inactive); with EKVX it was > 94.2 µM (inactive); with IGROV-1 it was 18.5 µM (inactive); with MCF7, 4.95 µM (inactive); in the experiment on OVCAR-4, 26.6 µM (inactive). For the same compound, the GI50 in the experiment with HOP-92 was > 75 µM (inactive); in the experiment on SK-MEL-28, > 81.7 µM (inactive); in the experiment with HCC 2998, 14.6 µM (inactive); in the experiment with K562, 25.5 µM (inactive); in the experiment with SW-620, 9.93 µM (inactive); in the experiment with Hs-578T, > 100 µM (inactive). Further, the GI50 in the experiment with COLO 205 was 27.6 µM (inactive); in the experiment with NCI-H522 it was 11.7 µM (inactive).
`COC1=CC(=O)c2c(O)c3c(c(O)c2C1=O)OC1(Oc2c(cc4cc(C)oc(=O)c4c2O)CC1O)C3O` (stereo not given): the GI50 in the experiment with CAKI-1 is 21.7 µM (inactive); with SF-268, 61 µM (inactive); with SK-OV-3 it was 77.1 µM (inactive); in the experiment on MDA-MB-231 it was 24 µM (inactive); with OVCAR-5, 32.7 µM (inactive); with MOLT-4, 23.3 µM (inactive). For the same compound, the GI50 is 35.6 µM (inactive) in the experiment with NCI-H23; 39.7 µM (inactive) in the experiment on SK-MEL-2; 24.9 µM (inactive) with EKVX; 25.8 µM (inactive) with IGROV-1; 43.9 µM (inactive) in the experiment on MCF7; 27.8 µM (inactive) with OVCAR-4. Besides, the GI50 in the experiment on HOP-92 was > 100 µM (inactive); with SK-MEL-28, 46.5 µM (inactive); in the experiment on HCC 2998 it was 28.9 µM (inactive); with K562, 42.8 µM (inactive); in the experiment with SW-620, 53.7 µM (inactive); in the experiment with Hs-578T, 91.8 µM (inactive). Also, the GI50 was 32.8 µM (inactive) in the experiment on COLO 205 and 25.1 µM (inactive) in the experiment with NCI-H522.
Regarding `CSc1nc(O)c(C#N)c(-c2ccccc2)n1`, the GI50 with CAKI-1, with SF-268, in the experiment with SK-OV-3, in the experiment on MDA-MB-231, in the experiment on OVCAR-5 and in the experiment with MOLT-4 was > 100 µM (inactive) throughout. Further, the GI50 in the experiment on NCI-H23, in the experiment with SK-MEL-2, with EKVX, in the experiment with IGROV-1, in the experiment on MCF7 and with OVCAR-4 was > 100 µM (inactive) each time. For the same compound, the GI50 is 97.5 µM (inactive) with HOP-92; > 100 µM (inactive) in the experiment with SK-MEL-28; > 100 µM (inactive) in the experiment with HCC 2998; > 100 µM (inactive) with K562; > 100 µM (inactive) in the experiment on SW-620; > 100 µM (inactive) with Hs-578T. Also, the GI50 with COLO 205 is > 100 µM (inactive); with NCI-H522, 53.1 µM (inactive).
On to `C=C1CC(c2ccc(OCCCN3C(=O)c4ccccc4C3=O)cc2)OC1=O` (stereo not given), for which the GI50 with CAKI-1 was 2.37 µM (inactive); with SF-268 it was 4.32 µM (inactive); with SK-OV-3, 14.4 µM (inactive); in the experiment with MDA-MB-231 it was 3.95 µM (inactive); in the experiment on OVCAR-5, 11.4 µM (inactive); in the experiment on MOLT-4, 1.52 µM (inactive). The GI50 with NCI-H23 was 2.35 µM (inactive); with SK-MEL-2 it was 1.96 µM (inactive); with EKVX it was 3.9 µM (inactive); in the experiment on IGROV-1, 1.06 µM (active); in the experiment on MCF7, 1.42 µM (inactive); in the experiment on OVCAR-4, 2.45 µM (inactive). In addition, the GI50 with HOP-92 was 1.36 µM (inactive); in the experiment with SK-MEL-28, 1.81 µM (inactive); with HCC 2998 it was 3.78 µM (inactive); in the experiment on K562 it was 1.52 µM (inactive); in the experiment on SW-620, 1.48 µM (inactive); in the experiment on Hs-578T it was 5.31 µM (inactive). Also, the GI50 in the experiment on COLO 205 is 1.91 µM (inactive); in the experiment with NCI-H522, 0.653 µM (active).
Regarding `COC(=O)[C@H]1CO[C@H]2C/C(C)=C/CC/C(C)=C/CC[C@@]3(C)O[C@@H]3C[C@H]21`, the GI50 is 36.1 µM (inactive) with CAKI-1; 19.6 µM (inactive) in the experiment on SF-268; 29.9 µM (inactive) in the experiment on SK-OV-3; 10.8 µM (inactive) in the experiment on MDA-MB-231; > 50 µM (inactive) in the experiment with OVCAR-5; 10.4 µM (inactive) in the experiment on MOLT-4. Further, the GI50 in the experiment with NCI-H23 was 17.5 µM (inactive); with SK-MEL-2, 18 µM (inactive); in the experiment with EKVX, 19.5 µM (inactive); with IGROV-1, 16 µM (inactive); in the experiment on MCF7, 16.9 µM (inactive); in the experiment on OVCAR-4 it was 9.48 µM (inactive). In addition, the GI50 in the experiment on HOP-92 is 17.5 µM (inactive); in the experiment on SK-MEL-28, 13.4 µM (inactive); with HCC 2998, 9.38 µM (inactive); in the experiment on K562 it was 7.69 µM (inactive); with SW-620 it was 10.4 µM (inactive); in the experiment on Hs-578T it was 14 µM (inactive). Besides, the GI50 in the experiment with COLO 205 is 10.8 µM (inactive); with NCI-H522 it was 8.79 µM (inactive).
`CNC(=O)OCc1c2ccncc2c(C)c2c1[nH]c1ccccc12`: the GI50 in the experiment on CAKI-1 was 0.141 µM (active); in the experiment with SF-268 it was 0.272 µM (active); in the experiment on SK-OV-3, 0.288 µM (active); in the experiment on MDA-MB-231, 0.48 µM (active); in the experiment on OVCAR-5 it was 0.296 µM (active); in the experiment with MOLT-4, 0.0659 µM (active). Moreover, the GI50 was 0.195 µM (active) in the experiment on NCI-H23; 0.261 µM (active) with SK-MEL-2; 0.372 µM (active) with EKVX; 0.182 µM (active) in the experiment on IGROV-1; 0.0455 µM (active) in the experiment on MCF7; 0.271 µM (active) in the experiment on OVCAR-4. The GI50 is 0.695 µM (active) with HOP-92; 0.818 µM (active) with SK-MEL-28; 0.206 µM (active) in the experiment with HCC 2998; 0.275 µM (active) in the experiment on K562; 0.136 µM (active) in the experiment with SW-620; 0.413 µM (active) in the experiment with Hs-578T. Moreover, the GI50 in the experiment with COLO 205 was 0.443 µM (active); with NCI-H522 it was 0.0646 µM (active).
Turning to `CCO/C=N\C1=C(C#N)SC2=N/C(=C\c3ccco3)C(=O)N21`, the GI50 in the experiment with CAKI-1, in the experiment with SF-268, in the experiment with SK-OV-3, in the experiment with MDA-MB-231, with OVCAR-5 and with MOLT-4 was > 100 µM (inactive) in each case. Besides, the GI50 with NCI-H23, with SK-MEL-2, in the experiment with EKVX, in the experiment with IGROV-1, in the experiment with MCF7 and in the experiment on OVCAR-4 was > 100 µM (inactive) in each case. Besides, the GI50 in the experiment with HOP-92, with SK-MEL-28, with HCC 2998, in the experiment with K562, in the experiment with SW-620 and in the experiment on Hs-578T was > 100 µM (inactive) each time. Moreover, the GI50 in the experiment with COLO 205 and with NCI-H522 was > 100 µM (inactive) in each case.
Consider `Cn1c2ccccc2c2c(-c3ccccc3)cc3c(c21)C(=O)C=CC3=O`, for which the GI50 in the experiment with CAKI-1 was 1.91 µM (inactive); with SF-268 it was 3.36 µM (inactive); in the experiment with SK-OV-3 it was > 10 µM (inactive); in the experiment with MDA-MB-231, 2.43 µM (inactive); in the experiment on OVCAR-5 it was > 8.51 µM (inactive); in the experiment with MOLT-4 it was 0.28 µM (active). Moreover, the GI50 in the experiment on NCI-H23 is 1.94 µM (inactive); in the experiment with SK-MEL-2 it was 3.03 µM (inactive); in the experiment on EKVX it was > 5.3 µM (inactive); in the experiment with IGROV-1, 2.3 µM (inactive); with MCF7, 1.72 µM (inactive); in the experiment with OVCAR-4, 2.46 µM (inactive). The GI50 with HOP-92 was 1.96 µM (inactive); in the experiment with SK-MEL-28 it was 2 µM (inactive); with HCC 2998, > 4.88 µM (inactive); with K562, 0.249 µM (active); in the experiment with SW-620, 0.421 µM (active); with Hs-578T, 3.54 µM (inactive). The GI50 is 0.632 µM (active) with COLO 205 and 1.23 µM (inactive) in the experiment with NCI-H522.
Turning to `OCc1ccc2c(c1)CC1(C2)Cc2cc3c(cc2C1O)CCC3` (stereo not given), the GI50 in the experiment with CAKI-1 is 5.25 µM (inactive); with SF-268, 10.9 µM (inactive); in the experiment on SK-OV-3, 8.75 µM (inactive); in the experiment with MDA-MB-231, 2.65 µM (inactive); with OVCAR-5 it was 18.9 µM (inactive); in the experiment with MOLT-4, 4.09 µM (inactive). For the same compound, the GI50 in the experiment with NCI-H23 was 5.35 µM (inactive); in the experiment with SK-MEL-2, 3.33 µM (inactive); with EKVX it was 10.1 µM (inactive); in the experiment on IGROV-1, 4.84 µM (inactive); with MCF7 it was 3.66 µM (inactive); in the experiment with OVCAR-4, 10.4 µM (inactive). In addition, the GI50 in the experiment on HOP-92 is 12.2 µM (inactive); with SK-MEL-28, 6.34 µM (inactive); in the experiment on HCC 2998, 6.55 µM (inactive); with K562, 1.58 µM (inactive); with SW-620, 4.55 µM (inactive); in the experiment on Hs-578T, 2.71 µM (inactive). The GI50 with COLO 205 was 3.17 µM (inactive); in the experiment with NCI-H522, 3.23 µM (inactive).
